Results: PubChem BioAssay (NCI)
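96-well plates; 48 h exposure; 5 concentrations. Endpoints by linear interpolation between flanking doses. Not reached: highest tested concentration assigned. TGI is the concentration that stops growth completely.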

What was measured:
Assay in all cases: inhibition of tumour cell growth, NCI panel, 48 h
NCI-H460 lung = test system: NCI-H460 lung
HOP-62 NSCLC = test system: HOP-62 NSCLC
DLD-1 colon = test system: DLD-1 colon
SF-268 CNS = test system: SF-268 CNS
SF-539 CNS = test system: SF-539 CNS
XF 498 CNS = test system: XF 498 CNS
NCI-H522 lung = test system: NCI-H522 lung
CAKI-1 renal = test system: CAKI-1 renal
KM12 colon = test system: KM12 colon
OVCAR-3 ovarian = test system: OVCAR-3 ovarian
SNB-19 CNS = test system: SNB-19 CNS
HCT-15 colon = test system: HCT-15 colon
K-562 leukemia = test system: K-562 leukemia
UACC-257 melanoma = test system: UACC-257 melanoma
ACHN renal = test system: ACHN renal
OVCAR-4 ovarian = test system: OVCAR-4 ovarian
OVCAR-8 ovarian = test system: OVCAR-8 ovarian
SK-MEL-28 melanoma = test system: SK-MEL-28 melanoma
UO-31 renal = test system: UO-31 renal
LXFL 529 NSCLC = test system: LXFL 529 NSCLC
COLO 205 colon = test system: COLO 205 colon
MALME-3M melanoma = test system: MALME-3M melanoma
UACC-62 melanoma = test system: UACC-62 melanoma
SW-620 colon = test system: SW-620 colon
A549 NSCLC = test system: A549 NSCLC
DMS 273 small cell lung = test system: DMS 273 small cell lung
HOP-92 NSCLC = test system: HOP-92 NSCLC
SNB-75 CNS = test system: SNB-75 CNS
NCI-H23 lung = test system: NCI-H23 lung
SK-OV-3 ovarian = test system: SK-OV-3 ovarian
MOLT-4 leukemia = test system: MOLT-4 leukemia
HT29 colon = test system: HT29 colon
KM20L2 colon = test system: KM20L2 colon
TK-10 renal = test system: TK-10 renal
HCC-2998 colon = test system: HCC-2998 colon
OVCAR-5 ovarian = test system: OVCAR-5 ovarian
M19-MEL melanoma = test system: M19-MEL melanoma
IGROV1 ovarian = test system: IGROV1 ovarian
SF-295 CNS = test system: SF-295 CNS
HCT-116 colon = test system: HCT-116 colon
SNB-78 CNS = test system: SNB-78 CNS
LOX IMVI melanoma = test system: LOX IMVI melanoma
RPMI-8226 leukemia = test system: RPMI-8226 leukemia
HL-60(TB) leukemia = test system: HL-60(TB) leukemia
SR leukemia = test system: SR leukemia
NCI-H226 lung = test system: NCI-H226 lung
SN12C renal = test system: SN12C renal
SK-MEL-2 melanoma = test system: SK-MEL-2 melanoma
M14 melanoma = test system: M14 melanoma
U251 CNS = test system: U251 CNS
786-0 renal = test system: 786-0 renal

Measured: TGI

CCc1n[nH]c(=S)n1/N=C/c1ccc(-c2ccc([N+](=O)[O-])cc2)o1
> 100 µM: all assays above
